Assay results taken from patent publication US20130295150A1, “ELECTRICITY-GENERATING PARTICULATES AND THE USE THEREOF” (Johnson & Johnson Consumer Companies, Inc., priority 2007, published 2013).

Legend:
Format in all cases: cell-based
Human keratinocyte cells = assay: Stimulation of hydrogen peroxide production, CM-H2DCFDA fluorescence; settings: 0.03% positive control
Experimental: Human keratinocyte cells were seeded in assay plates at identical densities and incubated for 48 hours at 37° C. with 5% CO2. […] Cells were treated with galvanic particulates or zinc or copper metal powders alone over increasing amounts of time. Treatment of control wells with 0.03% hydrogen peroxide served as a positive control. Hydrogen peroxide production was quantitated using a fluorescent plate reader set at wavelengths 485 excitation/530 emission. The results are depicted in Tables 17 and 18.

[1] = test system: Human T-cells stimulated with PHA; assay: Human T-cell cytokine release stimulated with PHA; settings: 100 ug/ml, 10 μg/mL PHA, 48-hour incubation; for Cytokine Release Percent (%) Reduction: IL-2
Experimental: Human T-cells were collected from a healthy adult […] via leukopheresis. The T-cells were isolated from peripheral blood via Ficol gradient, and the cells were adjusted to a density of 1×10^6 cells/mL in serum free lymphocyte growth medium (ExVivo-15, Biowhittaker, Walkersville, Md.). Human T-cells were stimulated with 10 μg/mL PHA in the presence or absence of test compounds following published method (Hamamoto Y., et al. Exp Dermatol 2:231-235, 1993). Following a 48-hour incubation at 37° C. with 5% CO2, supernatant was removed and evaluated for cytokine content using commercially available multiplex cytokine detection kit.

MRSA [2] = assay: Zone of inhibition testing versus copper acetate and zinc acetate; settings: about 6 log CFU, 37° C., 24 hr
Experimental: (§1) Zone of inhibition testing was performed on agar discs containing copper-zinc galvanic particulates from Example 1(a) at 0.5%, Zn acetate at 0.5%, and Cu acetate at 0.1%. The discs were placed on TSA agar surface, inoculated with about 6 log CFU of MRSA or C. albicans, and incubated at 37° C. for 24 hr.

C. albicans [3] = assay: as above; settings: about 6 log CFU, 37° C., 24 hr
Experimental: as §1

MRSA [4] = assay: Sustained efficacy, zone of inhibition on day 1 and after transfer to new plate on day 2; settings: 1% in agar disc
Experimental: (§2) Agars discs containing either galvanic particulates as described in Example 1(a) or zinc acetate at 1% were placed on TSA agar surface inoculated with about 6 log CFU of MRSA or C. albicans and incubated at 37° C. for 24 hr (day-1).

C. albicans [5] = assay: as above; settings: 1% in agar disc
Experimental: as §2

MRSA [6] = assay: Agar disc microwell assay, log reduction by plate count; settings: about 6 log CFU in saline, 37° C., 200 rpm
Experimental: (§3) Agar discs containing copper-zinc galvanic particulates from Example 1(a) or zinc acetate at a concentration of 0.1%, 0.5%, or 1% were exposed to about 6 log CFU of MRSA or C. albicans in saline in microwell plate and incubated at 37° C. and 200 rpm for 24 hrs. Plate count was performed to enumerate the viable microorganisms after the incubation. Log reduction was defined as the log difference of the inoculum before and after the incubation with the test articles (e.g., a log reduction of 6 for the inoculum of 6 log means all the inoculum were killed, and a log reduction of 3 for the inoculum of 6 log means […] of the inoculum were killed).
(§4) Agar discs containing 0.1% copper coated zinc galvanic particulates from Example 1(a) or zinc acetate at 1% or copper acetate at 0.1% were exposed to about 6 log CFU of MRSA or C. albicans in saline in microwell plates, and incubated at 37° C., 200 rpm for 24 hr.
(§5) Plate count was performed to enumerate the viable microorganisms after the incubation. Log reduction was defined as the log difference of the inoculum before and after the incubation with the test articles.

C. albicans [7] = assay: as above; settings: about 6 log CFU in saline, 37° C., 200 rpm
Experimental: as §3, §4, §5

[8] = same disc moved to newly inoculated TSA plate, 24 hr (day-2)
[9] = Table 2, test material 0.10% in agar disc, 24 hrs
[10] = Table 2, test material 0.50% in agar disc, 24 hrs
[11] = Table 2, test material 1.00% in agar disc, 24 hrs
[12] = Table 4, 1% in agar disc, 24 hr
[13] = Table 4, 0.1% in agar disc, 24 hr

Which results are given for `OO` [Example H2O2, hydrogen peroxide]?
Hydrogen peroxide production (fluorescence), 30 Minutes (Human keratinocyte cells): 416.6 ± 61.3; Hydrogen peroxide production (fluorescence), 60 Minutes (Human keratinocyte cells): 591.4 ± 82.7; Hydrogen peroxide production (fluorescence), 200 Minutes (Human keratinocyte cells): 1117.5 ± 153.8; Hydrogen peroxide production (fluorescence), 240 Minutes (Human keratinocyte cells): 1214.8 ± 149.7; Hydrogen peroxide production (fluorescence), Baseline (Human keratinocyte cells): 98.1 ± 4.4

Which “Cytokine Release IL-2” value [1] does the source give for `C[C@]12CCC(=O)C=C1CC[C@@H]1[C@@H]2[C@@H](O)C[C@@]2(C)[C@H]1CC[C@]2(O)C(=O)CO` [Hydrocortisone] here?
The value was 7.69 ± 5.64 pmol/mL.

And the “Cytokine Release Percent (%) Reduction” value [1]?
The value was 98.6%.

What does the source list for `CC(=O)[O-].CC(=O)[O-].[Zn+2]` [Zinc Acetate, zinc acetate]?
zone of inhibition (MRSA [2]; 0.5% in agar disc on TSA agar): smaller zone of inhibition, approximately one half the radius; zone of inhibition (C. albicans [3]; 0.5% in agar disc on TSA agar): smaller zone of inhibition, approximately one half the radius; zone of inhibition, day 1 (MRSA [4]; 37° C., 24 hr (day-1)): produce a zone of inhibition; zone of inhibition, day 2 (MRSA [4]; [8]): did not show any inhibition; zone of inhibition, day 1 (C. albicans [5]; 37° C., 24 hr (day-1)): produce a zone of inhibition; zone of inhibition, day 2 (C. albicans [5]; [8]): did not show any inhibition; LOG REDUCTION MRSA (MRSA [6]; [9]): 1.7; LOG REDUCTION MRSA (MRSA [6]; [10]): 3.2; LOG REDUCTION MRSA (MRSA [6]; [11]): 5.1; LOG REDUCTION MRSA (MRSA [6]; [12]): 5.1; LOG REDUCTION C. albicans (C. albicans [7]; [9]): 2.2; LOG REDUCTION C. albicans (C. albicans [7]; [10]): 2.9; LOG REDUCTION C. albicans (C. albicans [7]; [11]): 4.7; LOG REDUCTION C. albicans (C. albicans [7]; [12]): 4.7

How did the “Cytokine Release IL-2” value [1] turn out when `[Cl-].[Cl-].[Zn+2]` [Zinc Chloride] was run?
Its value is 566.3 ± 20.6 pmol/mL.

And the “Cytokine Release Percent (%) Reduction” value [1]?
Its value is −0.6%.

How did the zone of inhibition (MRSA [2]; 0.1% in agar disc on TSA agar) turn out when copper acetate was run?
The zone of inhibition was “did not show any visible zone of inhibition”.

And the zone of inhibition (C. albicans [3]; 0.1% in agar disc on TSA agar)?
The zone of inhibition was “did not show any visible zone of inhibition”.

And the “Cytokine Release IL-2” value [1]?
Its value is 312.9 ± 96.8 pmol/mL.

What about the “Cytokine Release Percent (%) Reduction” value [1] of the same molecule?
Its value is 44.4%.

What about the “LOG REDUCTION MRSA” value (MRSA [6]; [13]) of the same molecule?
The value was 0.2.

And the “LOG REDUCTION C. albicans” value (C. albicans [7]; [13])?
The value was 0.3.
